Measured values: ChEMBL document CHEMBL1201862, “PubChem BioAssay data set” (2004)
The source made the active and inactive calls.

Experiments:
[1] = target: T1, Bcl-2-related protein A1 (Mus musculus, UniProt Q07440); format: functional;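 note: confirmatory dose–response counterscreen on Bfl-1, used to check hits from a UBC13 polyubiquitin inhibitor campaign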
T1 sequence (Q07440 whole entry): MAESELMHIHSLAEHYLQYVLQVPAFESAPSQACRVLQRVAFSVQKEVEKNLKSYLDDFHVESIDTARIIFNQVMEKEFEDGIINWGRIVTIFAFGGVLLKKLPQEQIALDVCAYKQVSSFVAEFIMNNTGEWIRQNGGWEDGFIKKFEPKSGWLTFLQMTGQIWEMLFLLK

[2] = target: T2, Ubiquitin-conjugating enzyme E2 N (Homo sapiens, UniProt P61088); format: functional
T2 sequence (P61088 whole entry): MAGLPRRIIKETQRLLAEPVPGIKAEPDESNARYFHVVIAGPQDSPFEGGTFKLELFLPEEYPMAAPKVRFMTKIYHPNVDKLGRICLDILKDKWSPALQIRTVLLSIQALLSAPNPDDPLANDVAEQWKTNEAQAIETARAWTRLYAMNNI

[3] = target: T2, Ubiquitin-conjugating enzyme E2 N; format: functional; remark: listed apart in the source
[4] = target: G-protein coupled receptor 55 (Homo sapiens, UniProt Q9Y2T6); assay: GPR55 antagonists, SAR follow-up, counter-screen for GPR35 antagonist project, imaging, image-based (AID 2397); format: functional
[5] = target: T3, Short transient receptor potential channel 4 (Mus musculus, UniProt Q9QUQ5); assay: mouse TRPC4 channel activators, dose response, cell-based, HEK293 TRPC4/mu-opioid, Fluo-4 calcium (AID 434937); format: functional
T3 sequence (Q9QUQ5 whole entry): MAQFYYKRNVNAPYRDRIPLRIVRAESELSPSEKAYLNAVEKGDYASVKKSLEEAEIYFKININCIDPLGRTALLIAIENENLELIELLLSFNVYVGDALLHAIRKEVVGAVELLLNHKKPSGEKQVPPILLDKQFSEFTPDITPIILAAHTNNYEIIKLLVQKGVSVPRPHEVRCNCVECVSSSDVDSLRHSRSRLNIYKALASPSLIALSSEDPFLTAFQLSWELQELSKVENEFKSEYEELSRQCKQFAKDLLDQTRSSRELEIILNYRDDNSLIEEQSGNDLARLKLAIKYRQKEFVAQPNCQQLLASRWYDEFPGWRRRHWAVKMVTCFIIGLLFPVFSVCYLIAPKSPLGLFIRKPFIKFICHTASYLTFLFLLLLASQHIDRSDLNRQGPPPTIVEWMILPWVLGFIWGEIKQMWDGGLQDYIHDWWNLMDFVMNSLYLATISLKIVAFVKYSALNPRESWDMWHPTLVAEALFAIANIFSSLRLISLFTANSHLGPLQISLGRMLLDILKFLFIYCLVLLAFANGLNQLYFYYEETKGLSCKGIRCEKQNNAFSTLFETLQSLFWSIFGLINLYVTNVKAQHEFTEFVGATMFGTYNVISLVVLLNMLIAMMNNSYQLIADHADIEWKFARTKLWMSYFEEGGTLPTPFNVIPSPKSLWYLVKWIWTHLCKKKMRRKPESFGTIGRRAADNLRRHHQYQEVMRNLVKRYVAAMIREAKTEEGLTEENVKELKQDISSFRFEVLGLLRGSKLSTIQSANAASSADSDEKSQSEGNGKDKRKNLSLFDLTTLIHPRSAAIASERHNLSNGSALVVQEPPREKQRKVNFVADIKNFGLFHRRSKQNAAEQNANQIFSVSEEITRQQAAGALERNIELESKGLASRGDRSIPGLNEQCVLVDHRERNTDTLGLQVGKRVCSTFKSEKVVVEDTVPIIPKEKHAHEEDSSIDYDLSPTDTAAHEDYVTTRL

[6] = cytotoxicity in HMLE control line with eGFP shRNA, dose response, counter-screen for HMLE_sh_ECad selective toxicity project, cell-based, HMLE_sh_eGFP, luminescence (AID 463074); format: functional, Homo sapiens;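 note: HMLE human mammary epithelial cells expressing control shRNA against eGFP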
[7] = Luminescence Cell-Based Dose Retest to Confirm Inhibitors of Cancer Stem Cells. [Related pubchem assays (depositor defined):AID2717, AID2721]; format: functional; settings: Homo sapiens
[8] = target: T4, Tyrosine-protein phosphatase non-receptor type 7 (Homo sapiens, UniProt P35236); format: functional
T4 sequence (P35236 whole entry): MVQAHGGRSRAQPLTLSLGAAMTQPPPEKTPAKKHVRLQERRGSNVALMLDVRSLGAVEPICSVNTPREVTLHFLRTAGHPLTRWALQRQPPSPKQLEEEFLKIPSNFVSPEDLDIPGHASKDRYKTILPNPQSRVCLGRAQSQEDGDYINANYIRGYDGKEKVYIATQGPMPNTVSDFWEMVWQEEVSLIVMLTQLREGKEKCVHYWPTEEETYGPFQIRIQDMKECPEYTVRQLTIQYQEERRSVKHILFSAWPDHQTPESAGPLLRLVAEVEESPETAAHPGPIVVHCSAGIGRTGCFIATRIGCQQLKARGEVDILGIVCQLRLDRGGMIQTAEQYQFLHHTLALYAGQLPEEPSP

[9] = target: T5, Tyrosine-protein phosphatase non-receptor type 22 (Homo sapiens, UniProt Q9Y2R2); format: functional
T5 sequence (Q9Y2R2 whole entry): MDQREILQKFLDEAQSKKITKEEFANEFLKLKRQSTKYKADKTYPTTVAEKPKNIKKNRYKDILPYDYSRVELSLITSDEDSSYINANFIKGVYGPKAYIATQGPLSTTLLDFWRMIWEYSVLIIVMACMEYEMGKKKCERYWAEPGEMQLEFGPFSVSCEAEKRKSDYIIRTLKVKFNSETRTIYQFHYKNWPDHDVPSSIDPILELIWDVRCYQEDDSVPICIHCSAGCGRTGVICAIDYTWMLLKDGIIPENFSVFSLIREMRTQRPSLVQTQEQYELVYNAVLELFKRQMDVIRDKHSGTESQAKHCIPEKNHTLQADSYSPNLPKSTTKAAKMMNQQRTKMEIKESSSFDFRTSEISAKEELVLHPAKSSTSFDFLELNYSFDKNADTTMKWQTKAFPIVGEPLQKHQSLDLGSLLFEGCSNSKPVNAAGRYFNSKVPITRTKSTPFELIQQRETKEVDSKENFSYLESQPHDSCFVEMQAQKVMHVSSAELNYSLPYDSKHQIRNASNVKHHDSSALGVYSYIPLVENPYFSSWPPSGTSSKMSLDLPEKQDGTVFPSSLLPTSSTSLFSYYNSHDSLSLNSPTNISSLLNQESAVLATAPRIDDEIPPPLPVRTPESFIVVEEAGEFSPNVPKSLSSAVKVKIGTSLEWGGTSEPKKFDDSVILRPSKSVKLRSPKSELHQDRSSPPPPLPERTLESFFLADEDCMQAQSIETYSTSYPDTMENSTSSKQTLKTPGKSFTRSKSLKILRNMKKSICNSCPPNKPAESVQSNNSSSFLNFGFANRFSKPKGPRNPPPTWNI

[10] = target: T5, Tyrosine-protein phosphatase non-receptor type 22; format: functional; remark: listed apart in the source
[11] = cytotoxicity in HEK-293T cells, dose response, cytotoxicity control for TCR NF-kB inhibitor project, luminescence, T-cell screen hits (AID 489026); format: functional, cell-based;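 note: cells exposed to compound about 14 hours before the viability readout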
[12] = test system: BJ; assay: cytotoxicity toward Ras-transformed BJeLR fibroblasts, dose response, cell-based, alamar blue fluorescence, cherrypicked samples (AID 2631); format: functional; settings: Homo sapiens;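 note: confirmatory dose-response assay in RAS-dependent BJ fibroblasts engineered with TERT, LT and ST, with cytotoxicity read by fluorescence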
[13] = cytotoxicity toward DRD oncogenic fibroblasts, dose response, cell-based, non-viral oncogenic, luminescence (AID 1934); format: functional; settings: Homo sapiens
[14] = test system: BJ; assay: cytotoxicity toward BJ-TERT fibroblasts, dose response, cell-based, RAS-independent, luminescence (AID 1933); format: functional; settings: Homo sapiens
[15] = test system: BJ; assay: cells; format: functional, cell-based; settings: Homo sapiens
[16] = target: T6, Delta-type opioid receptor (Homo sapiens, UniProt P41143); assay: HTS Image-Based Screen for Agonists of the DOR Receptor. [Related pubchem assays (depositor defined):AID1777, AID1786, AID2133]; format: functional
[17] = target: T7, RNA-editing ligase 1, mitochondrial (Trypanosoma brucei brucei, UniProt P86926); assay: TbREL1 ligase inhibitors, dose response, biochemical, fluorescence, Trypanosoma brucei (AID 1117295); format: functional
T7 sequence (P86926 whole entry): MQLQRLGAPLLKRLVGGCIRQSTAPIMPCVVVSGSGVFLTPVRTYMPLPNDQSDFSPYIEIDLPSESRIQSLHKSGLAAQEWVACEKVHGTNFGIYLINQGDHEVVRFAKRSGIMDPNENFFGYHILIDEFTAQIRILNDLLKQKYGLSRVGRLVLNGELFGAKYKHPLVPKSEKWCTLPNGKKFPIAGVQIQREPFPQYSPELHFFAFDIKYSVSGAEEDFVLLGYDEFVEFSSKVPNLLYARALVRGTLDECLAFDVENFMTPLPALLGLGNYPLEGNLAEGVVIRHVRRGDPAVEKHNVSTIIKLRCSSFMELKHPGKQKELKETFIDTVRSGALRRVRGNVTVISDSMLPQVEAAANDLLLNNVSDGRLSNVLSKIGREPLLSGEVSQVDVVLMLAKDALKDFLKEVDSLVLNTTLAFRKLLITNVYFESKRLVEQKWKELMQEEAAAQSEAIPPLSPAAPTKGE

[18] = target: T6, Delta-type opioid receptor; assay: HTS Image-Based Screen for Antagonists of the DOR Receptor. [Related pubchem assays (depositor defined):AID1777, AID1785, AID1786, AID2133]; format: functional
[19] = test system: Vero; assay: cells; format: functional; settings: Chlorocebus sabaeus
[20] = target: T8, Kappa-type opioid receptor (Homo sapiens, UniProt P41145); format: functional
[21] = target: Mu-type opioid receptor (Homo sapiens, UniProt P35372); assay: HTS Image-Based Screen for Agonists of the MOR Receptor. [Related pubchem assays (depositor defined):AID1777, AID1785, AID1786, AID2133]; format: functional;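 note: imaging of beta-arrestin GFP recruitment into spots after receptor activation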
[22] = target: Beta-galactosidase (Escherichia coli, UniProt Q8VNN2); format: functional
[23] = target: T8, Kappa-type opioid receptor; format: functional; remark: listed apart in the source

T6 sequence (P41143 whole entry): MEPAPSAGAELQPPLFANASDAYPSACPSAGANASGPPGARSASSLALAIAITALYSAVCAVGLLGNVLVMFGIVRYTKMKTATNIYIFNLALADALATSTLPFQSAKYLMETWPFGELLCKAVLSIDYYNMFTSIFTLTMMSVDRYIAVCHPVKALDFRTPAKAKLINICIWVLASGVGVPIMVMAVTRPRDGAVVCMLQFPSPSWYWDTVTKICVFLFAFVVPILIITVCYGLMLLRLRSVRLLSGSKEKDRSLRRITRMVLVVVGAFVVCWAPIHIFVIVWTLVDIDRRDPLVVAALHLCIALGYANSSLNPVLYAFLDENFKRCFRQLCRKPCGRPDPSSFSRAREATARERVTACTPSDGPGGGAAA
T8 sequence (P41145 whole entry): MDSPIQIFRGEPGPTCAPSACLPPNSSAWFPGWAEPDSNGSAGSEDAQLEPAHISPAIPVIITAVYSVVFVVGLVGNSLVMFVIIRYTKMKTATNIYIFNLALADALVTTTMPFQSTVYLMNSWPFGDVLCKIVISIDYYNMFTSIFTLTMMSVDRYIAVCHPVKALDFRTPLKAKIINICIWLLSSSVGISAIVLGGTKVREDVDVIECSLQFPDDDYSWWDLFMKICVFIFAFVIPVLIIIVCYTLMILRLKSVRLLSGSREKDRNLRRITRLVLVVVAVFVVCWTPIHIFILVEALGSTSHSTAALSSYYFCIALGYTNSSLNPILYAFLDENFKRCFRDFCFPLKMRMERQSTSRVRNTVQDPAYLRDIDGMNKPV
Sequence of Beta-galactosidase (Q8VNN2 whole entry): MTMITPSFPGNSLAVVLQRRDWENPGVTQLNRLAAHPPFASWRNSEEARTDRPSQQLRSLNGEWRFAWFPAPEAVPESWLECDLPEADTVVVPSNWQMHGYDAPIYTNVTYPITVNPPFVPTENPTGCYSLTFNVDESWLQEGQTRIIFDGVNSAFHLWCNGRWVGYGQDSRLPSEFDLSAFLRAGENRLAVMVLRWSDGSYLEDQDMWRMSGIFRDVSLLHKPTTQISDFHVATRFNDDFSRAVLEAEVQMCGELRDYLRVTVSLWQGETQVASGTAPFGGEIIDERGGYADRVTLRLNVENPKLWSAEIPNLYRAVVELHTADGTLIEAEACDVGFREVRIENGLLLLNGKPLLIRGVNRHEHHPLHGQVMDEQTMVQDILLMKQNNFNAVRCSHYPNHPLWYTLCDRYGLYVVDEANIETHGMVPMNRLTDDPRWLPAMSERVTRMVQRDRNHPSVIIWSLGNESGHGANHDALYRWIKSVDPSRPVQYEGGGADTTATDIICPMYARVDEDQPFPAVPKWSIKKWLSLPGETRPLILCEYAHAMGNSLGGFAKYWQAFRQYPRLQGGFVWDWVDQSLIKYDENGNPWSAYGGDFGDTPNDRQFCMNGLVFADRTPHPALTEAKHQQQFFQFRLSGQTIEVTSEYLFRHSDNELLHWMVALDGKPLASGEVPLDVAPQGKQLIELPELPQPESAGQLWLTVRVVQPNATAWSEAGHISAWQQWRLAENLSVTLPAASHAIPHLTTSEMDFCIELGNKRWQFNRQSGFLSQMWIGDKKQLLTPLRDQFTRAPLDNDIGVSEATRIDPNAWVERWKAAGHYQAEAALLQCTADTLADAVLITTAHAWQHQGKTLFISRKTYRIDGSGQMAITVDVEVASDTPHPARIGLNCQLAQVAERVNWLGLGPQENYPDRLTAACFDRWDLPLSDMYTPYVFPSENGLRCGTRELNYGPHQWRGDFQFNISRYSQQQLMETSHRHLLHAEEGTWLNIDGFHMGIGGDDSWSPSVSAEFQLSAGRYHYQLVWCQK
Sequence of G-protein coupled receptor 55 (Q9Y2T6 whole entry): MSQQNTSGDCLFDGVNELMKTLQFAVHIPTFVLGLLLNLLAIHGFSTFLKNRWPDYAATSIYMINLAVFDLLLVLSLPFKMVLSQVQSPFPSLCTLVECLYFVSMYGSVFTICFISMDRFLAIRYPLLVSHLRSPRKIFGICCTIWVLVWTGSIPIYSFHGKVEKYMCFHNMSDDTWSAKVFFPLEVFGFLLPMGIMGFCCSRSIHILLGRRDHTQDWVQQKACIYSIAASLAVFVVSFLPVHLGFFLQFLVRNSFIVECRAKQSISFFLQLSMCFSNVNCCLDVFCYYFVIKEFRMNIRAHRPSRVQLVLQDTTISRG
Sequence of Mu-type opioid receptor (P35372 whole entry): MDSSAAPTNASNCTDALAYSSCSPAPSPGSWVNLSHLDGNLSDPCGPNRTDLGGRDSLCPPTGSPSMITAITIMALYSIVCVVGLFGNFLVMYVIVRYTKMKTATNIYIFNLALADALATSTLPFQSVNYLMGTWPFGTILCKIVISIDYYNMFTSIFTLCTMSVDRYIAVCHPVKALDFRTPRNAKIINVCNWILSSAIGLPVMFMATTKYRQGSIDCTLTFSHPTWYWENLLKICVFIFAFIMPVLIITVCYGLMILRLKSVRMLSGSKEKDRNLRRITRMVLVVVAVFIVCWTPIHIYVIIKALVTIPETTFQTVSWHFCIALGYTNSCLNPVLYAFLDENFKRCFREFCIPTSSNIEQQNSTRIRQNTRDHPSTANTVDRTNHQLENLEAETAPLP

With O=C(NNC(=O)c1nn(-c2ccc(F)cc2)ccc1=O)c1ccc(C(F)(F)F)cc1 the IC50 [1] was > 20 µM (inactive), the IC50 [2] was 16.7 µM (active) and the IC50 [3] was 10.2 µM (active).
With Clc1ccccc1Cn1ncc2c(N3CCN(c4ccccc4)CC3)ncnc21 the IC50 [4] was > 32 µM (inactive).
In the case of O=C(NC1CCCN(Cc2ccc(Cl)cc2)C1)C1CCC1 (stereo not given), the EC50 [5] is reported as 1.33 µM (active).
With COc1ccccc1NC(=O)c1cc(S(=O)(=O)N2CCCCCC2)ccc1F the IC50 [1] was > 20 µM (inactive), the IC50 [2] was 10.6 µM (active) and the IC50 [3] was 9.99 µM (active).
With Cc1ccc(-n2cc(CNCC3CC(=O)N(C4CC4)C3)c(-c3cccc(C)c3)n2)cc1 (stereo not given) the EC50 [5] was 6.68 µM (active).
With CN(C)/N=C/c1ccc(Sc2ccc([N+](=O)[O-])cc2[N+](=O)[O-])o1 the AC50 [6] was 30.2 µM (active) and the AC50 [7] was 22.5 µM (active).
For O=C1OC(c2ccc(Br)cc2)=N/C1=C\c1ccco1, the IC50 [8] was > 79.4 µM (inactive), the IC50 [9] was > 79.4 µM (inactive) and the IC50 [10] was > 79.4 µM (inactive).
In the case of Cc1ccc(C)c(NS(=O)(=O)c2ccc(-c3cnc(C4CC4)o3)cc2)c1, the IC50 [11] is reported as 54 µM (inactive), the EC50 [12] is reported as < 0.104 µM (active) and the AC50 [6] is reported as 8.44 µM (inconclusive). The EC50 [13] was < 0.12 µM (active), the EC50 [14] was 0.15 µM (active) and the EC50 [15] was 0.298 µM (active). The AC50 [7] was < 0.16 µM (active).
With COc1ccc(C[C@H]2CN3C(=NC[C@@H]3C(C)C)N2C[C@H](C)NC(=O)c2ccc(C)c(Br)c2)cc1 the EC50 [16] was > 32 µM (inactive), the IC50 [17] was > 96.6 µM (inactive) and the IC50 [2] was > 20 µM (inactive). For the same compound, the IC50 [18] was > 32 µM (inactive), the CC50 [19] was 16.3 µM (active) and the IC50 [20] was 6.35 µM (active). For the same compound, the EC50 [21] was > 32 µM (inactive), the EC50 [22] was > 31.5 µM (inactive) and the IC50 [23] was 2.07 µM.
